The text below walks through data of patent US20240067639A1, “SMALL MOLECULES THAT TARGET THE RNA THAT CAUSES ALS” (EXPANSION THERAPEUTICS, INC., priority 2020, published 2024).

Read-outs that look alike come from different tables or passages of the source.

In test [1] the target is biotinylated r(G4C2)8 RNA and hnRNP H1-His6. Put plainly: TR-FRET hnRNP H binding assay. Conditions: Table D. An outline of the steps: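 Biotinylated r(G4C2)8 RNA (80 nM), heat-folded at 95 °C then slowly cooled, was preincubated 15 min with compound before hnRNP H1-His6 (75 nM) was added. After 15 min, streptavidin-XL665 (40 nM) and anti-His6-Tb (0.44 ng/μL) were added and TR-FRET was read after 1 h. IC50 was obtained by curve fitting.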

The test system of test [2] is RAN translation of (G4C2)66-No ATG-GFP in HEK293T cells. Briefly: Cell-based assay of RAN translation inhibition (GFP/mCherry reporter). Conditions: Homo sapiens, HEK-293T, 24 h, read-out: RANT IC25.
Where [3] appears, read: Table D, HEK293T, 24 h treatment.

For `Cc1c2ccncc2cc2c3cc(OCCN)ccc3n(C)c12` [Example 32, 2-((5,6-dimethyl-6H-pyrido[4,3-b]carbazol-9-yl)oxy)ethanamine], the Ki in test [1] turned out to be 9.5 µM. Further, the 25% effect concentration (IC25) in test [2] (setting [3]) came out at 1.4 µM.

For the molecule `CCN(CC)CCOc1ccc2c(c1)c1cc3cnccc3c(C)c1n2C` [Example 33, 2-((5,6-dimethyl-6H-pyrido[4,3-b]carbazol-9-yl)oxy)-N,N-diethylethanamine], in test [1], the Ki turned out to be 5.2 µM. For the same molecule, in test [2], the IC25 is 3.7 µM.

Turning to `CNC(=O)COc1ccc2c(c1)c1cc3cnccc3c(C)c1n2C` [Example 34, 2-((5,6-dimethyl-6H-pyrido[4,3-b]carbazol-9-yl)oxy)-N-methylacetamide], the Ki in test [1] turned out to be 6.1 µM. Moreover, the IC25 in test [2] (setting [3]) came out at 1.2 µM.

Regarding `Cc1c2ccncc2cc2c3cc(OCc4nccn4C)ccc3n(C)c12` [Example 35, 5,6-dimethyl-9-((1-methyl-1H-imidazol-2-yl)methoxy)-6H-pyrido[4,3-b]carbazole], in test [1], the affinity, expressed as Ki, was 38 µM. In test [2] (setting [3]), the IC25 was > 5 µM.

In turn, `Cc1c2ccncc2cc2c3cc(OC[C@H]4CCCN4C)ccc3n(C)c12` [Example 36, (R)-5,6-dimethyl-9-((1-methylpyrrolidin-2-yl)methoxy)-6H-pyrido[4,3-b]carbazole] gave an inhibition constant Ki in test [1] of 3.9 µM. Also, the IC25 in test [2] (setting [3]) is > 5 µM.

Take `Cc1c2ccncc2cc2c3cc(OC[C@@H]4CCCN4C)ccc3n(C)c12` [Example 37, (S)-5,6-dimethyl-9-((1-methylpyrrolidin-2-yl)methoxy)-6H-pyrido[4,3-b]carbazole]: the Ki in test [1] is 0.84 µM. Further, the IC25 in test [2] (setting [3]) turned out to be 2.3 µM.

On to `Cc1c2ccncc2cc2c3cc(OC[C@H]4CCCN4)ccc3n(C)c12` [Example 38, (R)-5,6-dimethyl-9-(pyrrolidin-2-ylmethoxy)-6H-pyrido[4,3-b]carbazole], for which the affinity in test [1] corresponds to a Ki of 0.76 µM. For the same molecule, in test [2] (setting [3]), the IC25 stood at 0.74 µM.

Take `Cc1c2ccncc2cc2c3cc(OC[C@@H]4CCCN4)ccc3n(C)c12` [Example 39, (S)-5,6-dimethyl-9-(pyrrolidin-2-ylmethoxy)-6H-pyrido[4,3-b]carbazole]: the affinity in test [1], expressed as Ki, was 0.8 µM. Also, in test [2] (setting [3]), the IC25 stood at 1.3 µM.

Consider `Cc1c2ccncc2cc2c3cc(OCC4=NCCN4C)ccc3n(C)c12` [Example 41, 5,6-dimethyl-9-((1-methyl-4,5-dihydro-1H-imidazol-2-yl)methoxy)-6H-pyrido[4,3-b]carbazole], for which affinity in test [1] was put at a Ki of 0.6 µM. In test [2] (setting [3]), the IC25 was found to be 0.67 µM.

In test [1], `Cc1c2ccncc2cc2c3cc(OCC(=O)NCCN4CCOCC4)ccc3n(C)c12` [Example 42, 2-((5,6-dimethyl-6H-pyrido[4,3-b]carbazol-9-yl)oxy)-N-(2-morpholinoethyl)acetamide] yielded an inhibition constant (Ki) of 9.2 µM. In test [2] (setting [3]), the IC25 was > 5 µM.

Consider `COc1ccc2c(c1)c1cc3ccncc3c(C)c1n2C` [Example 50, 7-methoxy-10,11-dimethyl-10H-pyrido[3,4-b]carbazole], for which the Ki in test [1] came to 33 µM. Also, the concentration for an effect of 25% (IC25) in test [2] (setting [3]) stood at 0.27 µM.

Take `Cc1c2ccncc2cc2c3ccc(OCCN(C)C)cc3n(C)c12` [Example 51, 2-((5,6-dimethyl-6H-pyrido[4,3-b]carbazol-8-yl)oxy)-N,N-dimethylethanamine]: the affinity in test [1] corresponds to a Ki of 6 µM. In test [2] (setting [3]), the IC25 was > 5 µM.

`Cc1c2ccncc2cc2c3ccc(OCC4=NCCN4)cc3n(C)c12` [Example 52, 8-((4,5-dihydro-1H-imidazol-2-yl)methoxy)-5,6-dimethyl-6H-pyrido[4,3-b]carbazole]: the Ki in test [1] was found to be 5.6 µM. Moreover, in test [2] (setting [3]), the IC25 worked out at 3.1 µM.

Consider `Cc1c2ccncc2cc2c3c(OCCN4CCOCC4)cccc3n(C)c12` [Example 54, 4-(2-((5,6-dimethyl-6H-pyrido[4,3-b]carbazol-10-yl)oxy)ethyl)morpholine], for which, in test [1], the affinity corresponds to a Ki of 13 µM. The IC25 in test [2] (setting [3]) was 1.3 µM.

Consider `Cc1c2ccncc2cc2c3c(OCCN(C)C)cccc3n(C)c12` [Example 55, 2-((5,6-dimethyl-6H-pyrido[4,3-b]carbazol-10-yl)oxy)-N,N-dimethylethanamine], for which the Ki in test [1] came out at 1.5 µM. Further, the IC25 in test [2] is 0.92 µM.

`Cc1c2ccncc2cc2c3c(OCC4=NCCN4)cccc3n(C)c12` [Example 56, 10-((4,5-dihydro-1H-imidazol-2-yl)methoxy)-5,6-dimethyl-6H-pyrido[4,3-b]carbazole]: the affinity in test [1] corresponds to a Ki of 1 µM. For the same molecule, the IC25 in test [2] (setting [3]) is 0.67 µM.

`Cc1c2ccncc2cc2c3cc(OCC(=O)N(C)C)ccc3n(C)c12` [Example 57, 2-((5,6-dimethyl-6H-pyrido[4,3-b]carbazol-9-yl)oxy)-N,N-dimethylacetamide] returned a Ki in test [1] of 5.2 µM. Also, in test [2] (setting [3]), the IC25 stood at 4 µM.

As to `Cc1c2ccncc2cc2c3cc(OCC(=O)N4CCN(C)CC4)ccc3n(C)c12` [Example 60, 2-((5,6-dimethyl-6H-pyrido[4,3-b]carbazol-9-yl)oxy)-1-(4-methylpiperazin-1-yl)ethanone], affinity in test [1] was put at a Ki of 3.8 µM. Moreover, the IC25 in test [2] (setting [3]) is > 5 µM.

In test [1], `Cc1c2ccncc2cc2c3cc(OC[C@@H](C)N)ccc3n(C)c12` [Example 61, (R)-1-((5,6-dimethyl-6H-pyrido[4,3-b]carbazol-9-yl)oxy)propan-2-amine] returned a Ki of 0.9 µM. Besides, the IC25 in test [2] (setting [3]) amounted to 1 µM.

In the case of `CCn1c2ccc(OCCN3CCOCC3)cc2c2cc3cnccc3c(C)c21` [Example 62, 4-[2-(6-ethyl-5-methyl-pyrido[4,3-b]carbazol-9-yl)oxyethyl]morpholine], the Ki in test [1] was > 200 µM. Also, the IC25 in test [2] (setting [3]) was > 5 µM.

The molecule `CCn1c2ccc(OCC3=NCCN3)cc2c2cc3cnccc3c(C)c21` [Example 63, 9-((4,5-dihydro-1H-imidazol-2-yl)methoxy)-6-ethyl-5-methyl-6H-pyrido[4,3-b]carbazole] had a Ki in test [1] of 1.8 µM. In addition, the IC25 in test [2] (setting [3]) was found to be 4.8 µM.

For `Cc1c2ccncc2cc2c3cccc(OCCN4CCOCC4)c3n(C)c12` [Example 64, 4-(2-((5,6-dimethyl-6H-pyrido[4,3-b]carbazol-7-yl)oxy)ethyl) morpholine], in test [1], the Ki is > 200 µM. Moreover, in test [2] (setting [3]), the IC25 was > 5 µM.

Take `Cc1c2ccncc2cc2c3cc(C(=O)NCCN(C)C)ccc3n(C)c12` [Example 68, N-(2-(dimethylamino)ethyl)-5,6-dimethyl-6H-pyrido[4,3-b]carbazole-9-carboxamide]: the Ki in test [1] is 4 µM. In addition, the IC25 in test [2] (setting [3]) is 0.72 µM.

The molecule `Cc1c2ccncc2cc2c3cc(C(N)=O)ccc3n(C)c12` [Example 69, 5,6-dimethyl-6H-pyrido[4,3-b]carbazole-9-carboxamide] displayed a Ki in test [1] of 12 µM. In addition, the IC25 in test [2] (setting [3]) is 1.6 µM.

In test [1], `CNC(=O)c1ccc2c(c1)c1cc3cnccc3c(C)c1n2C` [Example 70, N,5,6-trimethyl-6H-pyrido[4,3-b]carbazole-9-carboxamide] had a Ki of 36 µM. Besides, in test [2] (setting [3]), the IC25 turned out to be 3.6 µM.

In test [1], `Cc1c2ccncc2cc2c3cc(C(=O)N(C)C)ccc3n(C)c12` [Example 71, N,N,5,6-tetramethyl-6H-pyrido[4,3-b]carbazole-9-carboxamide] registered a Ki of 107 µM. The IC25 in test [2] (setting [3]) was > 5 µM.

`CNCCNC(=O)c1ccc2c(c1)c1cc3cnccc3c(C)c1n2C` [Example 73, 5,6-dimethyl-N-(2-(methylamino)ethyl)-6H-pyrido[4,3-b]carbazole-9-carboxamide]: affinity in test [1] was put at a Ki of 13 µM. In addition, in test [2] (setting [3]), the IC25 was found to be 0.84 µM.

For the molecule `Cc1c2ccncc2cc2c3cc(C(=O)NCCC4CCN(C)CC4)ccc3n(C)c12` [Example 75, 5,6-dimethyl-N-(2-(1-methylpiperidin-4-yl)ethyl)-6H-pyrido[4,3-b]carbazole-9-carboxamide], the affinity in test [1], expressed as Ki, was 29 µM. In addition, in test [2] (setting [3]), the IC25 turned out to be 1.4 µM.

With `Cc1c2ccncc2cc2c3cc(C(=O)N4CCN(C)CC4)ccc3n(C)c12` [Example 76, (5,6-dimethyl-6H-pyrido[4,3-b]carbazol-9-yl)(4-methylpiperazin-1-yl)methanone], in test [1], the Ki was 4.2 µM. Further, the IC25 in test [2] (setting [3]) was 2.2 µM.

On to `Cc1c2ccncc2cc2c3cc(C(=O)NCCN4CCCCC4)ccc3n(C)c12` [Example 77, 5,6-dimethyl-N-(2-(piperidin-1-yl)ethyl)-6H-pyrido[4,3-b]carbazole-9-carboxamide], for which the Ki in test [1] is 1.2 µM. In test [2] (setting [3]), the IC25 amounted to 1.7 µM.

Turning to `Cc1c2ccncc2cc2c3cc(C(=O)NCCO)ccc3n(C)c12` [Example 78, N-(2-hydroxyethyl)-5,6-dimethyl-6H-pyrido[4,3-b]carbazole-9-carboxamide], the inhibition constant Ki in test [1] stood at 3.6 µM. Further, the IC25 in test [2] (setting [3]) is 1.6 µM.

`CCc1nccc2c(C)c3c(cc12)c1cc(OC)ccc1n3C` [Example 80a, 1-ethyl-9-methoxy-5,6-dimethyl-6H-pyrido[4,3-b]carbazole] yielded a Ki in test [1] of 30 µM. The IC25 in test [2] (setting [3]) was > 5 µM.

In turn, `COc1ccc2c(c1)c1cc3c(C4CCCO4)nccc3c(C)c1n2C` (stereo not shown) [Example 80b, 9-methoxy-5,6-dimethyl-1-(tetrahydrofuran-2-yl)-6H-pyrido[4,3-b]carbazole] showed a Ki in test [1] of 9.2 µM. Further, in test [2] (setting [3]), the 25% effect concentration (IC25) was determined as 3.1 µM.

Regarding `COc1ccc2c3cc4c(C(=O)N[C@H](C)CN(C)C)nccc4c(C)c3n(C)c2c1` [Example 82, (R)—N-(1-(dimethylamino)propan-2-yl)-8-methoxy-5,6-dimethyl-6H-pyrido[4,3-b]carbazole-1-carboxamide], affinity in test [1] was put at a Ki of 20 µM. The IC25 in test [2] (setting [3]) is > 5 µM.

With `Cc1c2cnccc2cc2c3cc(OCC4=NCCN4)ccc3n(C)c12` [Example 83, 7-(4,5-dihydro-1H-imidazol-2-ylmethoxy)-10,11-dimethyl-pyrido[3,4-b]carbazole], the Ki in test [1] was found to be 2.3 µM. The IC25 in test [2] (setting [3]) stood at 1.1 µM.

One may read the Ki as a measure of affinity in units of concentration, obtained from inhibition or displacement. One may read the IC25 as the concentration at which the effect reaches the 25% level.
